Results published in US20160122320A1, “USEFUL COMBINATIONS OF MONOBACTAM ANTIBIOTICS WITH BETA-LACTAMASE INHIBITORS” (Basilea Pharmaceutica AG, priority 2005, published 2016).
Where a name gives a salt, the structure may show the parent alone.

Tests used:
Experiment in all cases: MIC, NCCLS broth microdilution
Type in all cases: cell-based
Enterobacter cloacae P99 = conditions: MIC of antibiotic compound 1 with the labelled bridged monobactam of formula II and clavulanate, 4 mg/L each
Serratia marcescens S6 = conditions: MIC of antibiotic compound 1 with the labelled bridged monobactam of formula II and clavulanate, 4 mg/L each
[1] = system: Pseudomonas aeruginosa 1973E; conditions: MIC of antibiotic compound 1 with the labelled bridged monobactam of formula II and clavulanate, 4 mg/L each
How it was run: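 Compounds were serially diluted per NCCLS M7-A5 (final DMSO no more than 1%) and incubated with bacteria overnight at 30° C. or 37° C. Visible growth was then judged by eye. For combinations, partner compounds sat in every well at a constant 4 μg/mL each.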

[2] = system: Stenotrophomonas malthophilia 1AC736; conditions: Stenotrophomonas malthophilia 1AC736; MIC of antibiotic compound 1 with the labelled bridged monobactam of formula II and clavulanate, 4 mg/L each
Acinetobacter sp. J2 = conditions: Acinetobacter sp. J2; MIC of antibiotic compound 1 with the labelled bridged monobactam of formula II and clavulanate, 4 mg/L each
[3] = system: Pseudomonas aeruginosa MK1184; conditions: MIC of antibiotic compound 1 with the labelled bridged monobactam of formula II and clavulanate, 4 mg/L each
[4] = system: Klebsiella pneumoniae CF104; conditions: MIC of antibiotic compound 1 with the labelled bridged monobactam of formula II and clavulanate, 4 mg/L each

MIC of antibiotic at fixed inhibitor concentration (4 mg/L) (Enterobacter cloacae P99) [µg/mL]	MIC of antibiotic at fixed inhibitor concentration (4 mg/L) (Serratia marcescens S6) [µg/mL]	MIC of antibiotic at fixed inhibitor concentration (4 mg/L) [1] [µg/mL]	MIC of antibiotic at fixed inhibitor concentration (4 mg/L) [2] [µg/mL]	MIC of antibiotic at fixed inhibitor concentration (4 mg/L) (Acinetobacter sp. J2) [µg/mL]	MIC of antibiotic at fixed inhibitor concentration (4 mg/L) [3] [µg/mL]	MIC of antibiotic at fixed inhibitor concentration (4 mg/L) [4]	Compound
32	0.25	4	0.125	4	>32	1 µg/mL	O=C(NCc1cccs1)N1CC[C@@H]2[C@H]1C(=O)N2S(=O)(=O)[O-].[Na+] [Compound 314]
>32	0.5	8	0.125	16	>32	<=0.06 mg/L	CN(C)c1cc[n+](CC(=O)N2CC[C@@H]3[C@H]2C(=O)N3S(=O)(=O)[O-])cc1 [Compound 112, (1S,5R)-2-{2-[4-(dimethylamino)pyridinium]acetyl}-7-oxo-2,6-diazabicyclo[3.2.0]heptane-6-sulfonate, inner salt]
>32	0.25	4	0.125	2	32	0.125 µg/mL	NC(=O)c1cc[n+](CC(=O)N2CC[C@@H]3[C@H]2C(=O)N3S(=O)(=O)[O-])cc1C(N)=O [Compound 110, (1S,5R)-2-[2-(3,4-dicarbamoylpyridinium)acetyl]-7-oxo-2,6-diazabicyclo[3.2.0]heptane-6-sulfonate, inner salt]
32	0.125	4	0.125	4	16	0.5 µg/mL	O=C(NC1CC1)c1ccc[n+](CC(=O)N2CC[C@@H]3[C@H]2C(=O)N3S(=O)(=O)[O-])c1 [Compound 109, (1S,5R)-2-{2-[3-(N-cyclopropylcarbamoyl)pyridinium]acetyl}-7-oxo-2,6-diazabicyclo[3.2.0]heptane-6-sulfonate, inner salt]
